Experiments:
[1] = tested on: albino Wistar rats; test: Streptozotocin induction of hyperglycemic/diabetic state in albino Wistar rats; assay type: in vivo
Experimental: Table 1 presents the results of how the metabolism of normal albino rats progresses into a hyperglycemic/diabetic state as a multiple low-dosage of streptozotocin is administered for diabetes induction.

[2] = Solubility of diosgenin in oil phase; assay type: physicochemical; details: dissolved in combination with bottle gourd seed

CN(N=O)C(=O)N[C@H]1C(O)O[C@H](CO)[C@@H](O)[C@@H]1O (mixture of isomers) [Streptozotocin, streptozotocin]
Glucose Concentration ([1]; First Cycle, Day 15): 532.17 ± 22.15 mg/dL | Glycated Hemoglobin GHb ([1]; First Cycle, Day 15): 12.37 ± 0.81 | Glycated Hemoglobin HbA1c ([1]; First Cycle, Day 15): 9.50 ± 0.54% | Glycated Hemoglobin MBG ([1]; First Cycle, Day 15): 225.39 ± 15.55 | Glucose Concentration ([1]; First Cycle, Dose 1 of multiple low-dosage streptozotocin): 171.56 ± 22.70 mg/dL | Glucose Concentration ([1]; First Cycle, Dose 2): 318.31 ± 19.86 mg/dL | Glucose Concentration ([1]; First Cycle, Dose 3): 439.31 ± 41.00 mg/dL | Glucose Concentration ([1]; Second cycle, Dose 4): 425.60 ± 31.10 mg/dL | Glucose Concentration ([1]; Second cycle, Dose 5): 459.87 ± 33.56 mg/dL | Glucose Concentration ([1]; Second cycle, Dose 6): 451.89 ± 44.27 mg/dL | Glycated Hemoglobin GHb ([1]; Second cycle, Dose 6): 12.40 ± 0.28 | Glycated Hemoglobin HbA1c ([1]; Second cycle, Dose 6): 9.50 ± 0.19% | Glycated Hemoglobin MBG ([1]; Second cycle, Dose 6): 226.03 ± 5.53

C[C@@H]1CC[C@@]2(OC1)O[C@H]1C[C@H]3[C@@H]4CC=C5C[C@@H](O)CC[C@]5(C)[C@H]4CC[C@]3(C)[C@H]1[C@@H]2C [diosgenin]
solubility of diosgenin [2]: enhanced

From patent US20240408010A1, “A Nano Emulsified Phyto-Drug For Transdermal Treatment of Diabetes” (University of South Africa, priority 2021, published 2024)
